Laboratory results: patent publication US8329675B2, “Inhibitors of fatty acid amide hydrolase” (Infinity Pharmaceuticals, Inc., priority 2006, dated 2012)

Biological target: T1, rat FAAH (Rattus norvegicus, UniProt P97612)
T1 construct: Five rat livers are homogenized in five fold volume with ice cold Tris; from tissue; host or cells: rat liver; 40,000 g membrane pellet solubilised in 1% Triton X-100
T1 sequence (P97612 1-579): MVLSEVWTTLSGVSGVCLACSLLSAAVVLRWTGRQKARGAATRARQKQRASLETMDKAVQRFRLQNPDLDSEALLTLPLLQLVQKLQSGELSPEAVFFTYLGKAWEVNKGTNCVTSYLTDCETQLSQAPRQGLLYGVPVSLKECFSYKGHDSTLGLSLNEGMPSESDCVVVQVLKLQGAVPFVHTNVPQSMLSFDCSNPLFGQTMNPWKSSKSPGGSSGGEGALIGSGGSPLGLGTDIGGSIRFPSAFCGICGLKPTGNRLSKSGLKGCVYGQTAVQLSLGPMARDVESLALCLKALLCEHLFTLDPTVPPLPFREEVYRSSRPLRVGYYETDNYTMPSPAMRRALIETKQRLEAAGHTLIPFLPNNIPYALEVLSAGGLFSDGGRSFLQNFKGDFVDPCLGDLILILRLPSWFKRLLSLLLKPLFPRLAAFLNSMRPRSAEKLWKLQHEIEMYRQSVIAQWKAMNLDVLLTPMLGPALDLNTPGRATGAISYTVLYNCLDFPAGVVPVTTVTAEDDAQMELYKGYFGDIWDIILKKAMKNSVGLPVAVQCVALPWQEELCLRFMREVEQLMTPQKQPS
Assay: Rat FAAH biochemical inhibition assay (AMC arachidonoyl amide fluorescence)
Text: The following assays may be used to determine the inhibition of FAAH by the compounds of the present invention: (1) a fluorescence-based assay for fatty acid amide hydrolase compatible with high-throughput screening as described in Manjunath et al., Analytical Biochemistry (2005) 343:143-151; and (2) a high-throughput screening for the discovery of inhibitors of fatty acid amide hydrolase using a microsome-based fluorescent assay. Wang et al., Biomolecular Screening (2006) 1-9.
Rat FAAH Preparation: Five rat livers are homogenized in five fold volume with ice cold Tris (20 mM pH 8.0) and 0.32 M Sucrose solution via an Ultra Turrax T25 homogenizer. All subsequent preparation steps are carried out at 4° C. The homogenate is centrifuged at 6000 g, for 20 minutes and the pellet, containing nuclear debris and mitochondria is discarded. The supernatant is centrifuged at 40,000 g for 30 minutes. […]
Rat FAAH Biochemical Inhibition Assay; Materials and methods: Rat FAAH biochemical assays are carried out in a 96 well flat bottom black non-treated polystyrene plates (Corning Costar Catalogue #3915). […] FAAH substrate—AMC Arachidonoyl Amide (Cayman Chemicals Company, Catalogue #10005098) The reaction is read in an Envision microtiter plate reader [Excitation filter 355 nm (40 nm bandpass); Emmision filter 460 nm (25 nm bandpass)]. The raw fluorescence is plotted on the y axis and the inhibitor concentration on the x axis to give a dose response inhibition curve. […]
Rat FAAH Biochemical Inhibition Assay; Experimental Protocol: The principle of this assay is the hydrolysis of AMC-Arichodonoyl, a fluorescent analogue of Anandamide, which results in the formation of Arachidonic acid and AMC. The formation of AMC results in an increase in fluorescence (see, for example, Manjunath et al., Analytical Biochemistry (2005) 343:143-151; and Wang et al., Bimolecular Screening (2006) 1-9).
A 0.49 mg/ml Rat liver FAAH solution is made up in FAAH reaction buffer, and 78 ul pipetted into a 96 well plate. […] The microtiter plate is read in the envision plate reader. […]

Ki (Table 1, rat FAAH (asterisk)) [nM] | Ki (Table 2, rat FAAH (asterisk)) [nM] | Compound
10 to 1000 |  | OB(O)c1cc2ccccc2s1 [Compound I-127]
10 to 1000 |  | CCCCCCOc1ccc(B(O)O)cc1 [Compound I-130]
 | 10 to 1000 | CCCCOc1cccc(B(O)O)c1 [II-315]
